Values of other authors in US6605639B1, “Ligands of nuclear receptor” (Nuclear Receptor Research, Ltd., priority 1998, dated 2003).

Assays:
[1] = tested on: patients; settings: at the normal dose; cited from earlier work
[2] = tested on: hereditary obese diabetic mice ob/ob and db/db; settings: oral; cited from earlier work

In the case of Cc1c(C)c2c(c(C)c1O)CCC(C)(COc1ccc(CC3SC(=O)NC3=O)cc1)O2 (centres unmarked) [troglitazone], the patients with hepatopathy [1] is given as “about 2%”.

In the case of C=C(c1ccc(C(=O)O)cc1)c1cc2c(cc1C)C(C)(C)CCC2(C)C [LGD1069], the “blood glucose levels, serum neutral fat levels and serum insulin levels” value [2] is listed as “drastically lower”.
